Values quoted from earlier work, collected in patent US6107342A, “2-amino-bicyclo[3.1.0]hexane-2,6-dicarboxylic acid derivatives and a process for the preparation thereof” (Hoffmann-La Roche Inc., priority 1998, dated 2000).

How the values were obtained:
mGluR3 = conditions: Mol. Pharmacology, Vol.53, 228-233 (1998)
mGluR2 = conditions: Mol. Pharmacology, Vol.53, 228-233 (1998)
[1] = biological target: group II metabotropic glutamate receptor; conditions: antagonism of inhibition by LY354740; Mol. Pharmacology, Vol.53, 228-233 (1998)

Ki (mGluR3): 89 nM
Ki (mGluR2): 52 nM
pKB [1]: 6.0
SMILES: N[C@]1(C(=O)O)[C@H]2[C@@H](C[C@H]1O)[C@@H]2C(=O)O [I-A, (1S,2R,3R,5R,6S)-2-amino-3-hydroxy-bicyclo [3.1.0]hexane-2,6-dicarboxylic acid]
